# Source: PMC8799717, “Pharmacological targeting PIKfyve and tubulin as an effective treatment strategy for double-hit lymphoma” (Cell Death Discovery, 2022)
# How the values were obtained:
# Test in all cases: biochemical
# Parameters in all cases: KINOMEscan active-site-directed competition binding panel, 468 kinases, percent of DMSO control at 1 uM
# Conditions in all cases: KINOMEscan binding, percent of DMSO control; read-out: Ctrl%
# [1] = molecular target: CAMK2D (Homo sapiens, UniProt Q13557)
# [2] = molecular target: CAMK2G (Homo sapiens, UniProt Q13555)
# [3] = molecular target: T1, PCTK2 (Homo sapiens, UniProt Q00537)
# T1 construct: gene CDK17
# [4] = molecular target: SLK (Homo sapiens, UniProt Q9H2G2)
# [5] = molecular target: T2, ABL1(H396P)-phosphorylated (Homo sapiens, UniProt P00519, H396P)
# T2 construct: phosphorylated
# [6] = molecular target: CDK4 (Homo sapiens, UniProt P11802)
# [7] = molecular target: T3, GCN2(Kin.Dom.2,S808G) (Homo sapiens, UniProt Q9P2K8, S808G)
# T3 construct: gene EIF2AK4; Kin.Dom.2
# [8] = molecular target: T4, ABL1(F317I)-phosphorylated (Homo sapiens, UniProt P00519, F317I)
# T4 construct: phosphorylated
# [9] = molecular target: CAMK2B (Homo sapiens, UniProt Q13554)
# [10] = molecular target: PIK3CA(H1047Y) (Homo sapiens, UniProt P42336, H1047Y)
# [11] = molecular target: LIMK2 (Homo sapiens, UniProt P53671)
# [12] = molecular target: ANKK1 (Homo sapiens, UniProt Q8NFD2)
# [13] = molecular target: FLT3(ITD,D835V) (Homo sapiens, UniProt P36888, D835V/ITD)
# [14] = molecular target: SYK (Homo sapiens, UniProt P43405)
# [15] = molecular target: PIK3CA (Homo sapiens, UniProt P42336)
# [16] = molecular target: PIP5K1A (Homo sapiens, UniProt Q99755)
# [17] = molecular target: T5, MKK7 (Homo sapiens, UniProt O14733)
# T5 construct: gene MAP2K7
# [18] = molecular target: T6, ABL1-nonphosphorylated (Homo sapiens, UniProt P00519)
# T6 construct: nonphosphorylated
# [19] = molecular target: GSK3B (Homo sapiens, UniProt P49841)
# [20] = molecular target: PRKCQ (Homo sapiens, UniProt Q04759)
# [21] = molecular target: T7, VEGFR2 (Homo sapiens, UniProt P35968)
# T7 construct: gene KDR
# [22] = molecular target: CDK3 (Homo sapiens, UniProt Q00526)
# [23] = molecular target: T8, LKB1 (Homo sapiens, UniProt Q15831)
# T8 construct: gene STK11
# [24] = molecular target: T9, BRK (Homo sapiens, UniProt Q13882)
# T9 construct: gene PTK6
# T5 sequence (O14733 whole entry): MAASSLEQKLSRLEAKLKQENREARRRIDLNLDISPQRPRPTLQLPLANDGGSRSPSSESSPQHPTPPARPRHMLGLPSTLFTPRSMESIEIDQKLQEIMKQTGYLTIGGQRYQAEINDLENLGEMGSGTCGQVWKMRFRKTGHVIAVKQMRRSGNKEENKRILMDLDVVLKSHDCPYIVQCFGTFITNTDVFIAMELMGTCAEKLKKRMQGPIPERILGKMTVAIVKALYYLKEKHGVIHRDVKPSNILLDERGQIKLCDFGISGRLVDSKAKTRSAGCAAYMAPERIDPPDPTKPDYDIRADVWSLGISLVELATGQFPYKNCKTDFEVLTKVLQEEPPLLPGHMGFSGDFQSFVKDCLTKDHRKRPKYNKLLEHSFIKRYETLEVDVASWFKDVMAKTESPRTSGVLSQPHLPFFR
# CAMK2B, sequence (Q13554 whole entry): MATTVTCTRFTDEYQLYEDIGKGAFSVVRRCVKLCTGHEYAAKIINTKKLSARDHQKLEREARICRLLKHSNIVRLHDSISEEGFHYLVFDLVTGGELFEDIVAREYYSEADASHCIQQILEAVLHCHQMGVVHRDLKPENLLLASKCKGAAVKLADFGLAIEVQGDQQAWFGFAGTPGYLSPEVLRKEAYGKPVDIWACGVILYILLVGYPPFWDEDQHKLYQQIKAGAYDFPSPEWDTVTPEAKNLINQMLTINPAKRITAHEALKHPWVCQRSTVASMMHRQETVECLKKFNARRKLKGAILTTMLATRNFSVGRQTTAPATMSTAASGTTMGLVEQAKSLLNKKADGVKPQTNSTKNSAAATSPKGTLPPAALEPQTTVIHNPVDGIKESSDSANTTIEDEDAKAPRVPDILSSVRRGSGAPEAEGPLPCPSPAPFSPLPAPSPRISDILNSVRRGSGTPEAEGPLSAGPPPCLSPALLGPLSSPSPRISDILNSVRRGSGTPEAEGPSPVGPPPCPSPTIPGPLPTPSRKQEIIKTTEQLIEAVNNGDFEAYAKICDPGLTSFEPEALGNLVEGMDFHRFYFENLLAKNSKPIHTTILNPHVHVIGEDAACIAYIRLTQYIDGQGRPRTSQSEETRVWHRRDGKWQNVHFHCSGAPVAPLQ
# PRKCQ, sequence (Q04759 whole entry): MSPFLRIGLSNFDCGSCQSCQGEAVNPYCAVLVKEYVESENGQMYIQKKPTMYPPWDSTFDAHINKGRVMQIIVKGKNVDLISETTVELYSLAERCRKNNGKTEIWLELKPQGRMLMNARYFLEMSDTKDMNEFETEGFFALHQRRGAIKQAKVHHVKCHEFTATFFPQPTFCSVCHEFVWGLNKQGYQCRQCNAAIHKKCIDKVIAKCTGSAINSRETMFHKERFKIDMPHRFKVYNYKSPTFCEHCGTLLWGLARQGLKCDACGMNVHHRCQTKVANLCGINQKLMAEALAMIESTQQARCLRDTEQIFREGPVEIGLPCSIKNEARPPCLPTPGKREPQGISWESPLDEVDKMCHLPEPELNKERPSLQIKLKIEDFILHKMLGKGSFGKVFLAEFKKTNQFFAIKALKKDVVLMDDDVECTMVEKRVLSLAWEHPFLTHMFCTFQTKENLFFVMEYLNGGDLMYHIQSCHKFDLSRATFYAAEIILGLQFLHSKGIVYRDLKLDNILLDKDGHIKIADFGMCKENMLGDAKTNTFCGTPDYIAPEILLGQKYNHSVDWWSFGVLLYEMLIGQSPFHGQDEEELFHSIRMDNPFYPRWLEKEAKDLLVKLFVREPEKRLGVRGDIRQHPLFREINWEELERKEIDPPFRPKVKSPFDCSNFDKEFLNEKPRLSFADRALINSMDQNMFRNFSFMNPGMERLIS
# GSK3B, sequence (P49841 whole entry): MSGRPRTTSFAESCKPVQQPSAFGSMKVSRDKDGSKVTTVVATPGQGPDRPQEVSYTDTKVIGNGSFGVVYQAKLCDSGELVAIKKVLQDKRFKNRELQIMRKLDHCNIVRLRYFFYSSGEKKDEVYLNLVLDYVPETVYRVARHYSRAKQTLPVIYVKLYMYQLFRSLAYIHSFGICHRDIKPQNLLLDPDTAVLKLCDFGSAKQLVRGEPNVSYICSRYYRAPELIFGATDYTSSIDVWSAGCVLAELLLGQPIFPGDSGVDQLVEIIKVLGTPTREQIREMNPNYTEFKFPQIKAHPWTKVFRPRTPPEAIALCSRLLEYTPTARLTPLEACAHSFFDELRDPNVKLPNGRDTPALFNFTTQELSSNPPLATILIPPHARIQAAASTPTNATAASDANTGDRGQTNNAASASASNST
# T7 sequence (P35968 whole entry): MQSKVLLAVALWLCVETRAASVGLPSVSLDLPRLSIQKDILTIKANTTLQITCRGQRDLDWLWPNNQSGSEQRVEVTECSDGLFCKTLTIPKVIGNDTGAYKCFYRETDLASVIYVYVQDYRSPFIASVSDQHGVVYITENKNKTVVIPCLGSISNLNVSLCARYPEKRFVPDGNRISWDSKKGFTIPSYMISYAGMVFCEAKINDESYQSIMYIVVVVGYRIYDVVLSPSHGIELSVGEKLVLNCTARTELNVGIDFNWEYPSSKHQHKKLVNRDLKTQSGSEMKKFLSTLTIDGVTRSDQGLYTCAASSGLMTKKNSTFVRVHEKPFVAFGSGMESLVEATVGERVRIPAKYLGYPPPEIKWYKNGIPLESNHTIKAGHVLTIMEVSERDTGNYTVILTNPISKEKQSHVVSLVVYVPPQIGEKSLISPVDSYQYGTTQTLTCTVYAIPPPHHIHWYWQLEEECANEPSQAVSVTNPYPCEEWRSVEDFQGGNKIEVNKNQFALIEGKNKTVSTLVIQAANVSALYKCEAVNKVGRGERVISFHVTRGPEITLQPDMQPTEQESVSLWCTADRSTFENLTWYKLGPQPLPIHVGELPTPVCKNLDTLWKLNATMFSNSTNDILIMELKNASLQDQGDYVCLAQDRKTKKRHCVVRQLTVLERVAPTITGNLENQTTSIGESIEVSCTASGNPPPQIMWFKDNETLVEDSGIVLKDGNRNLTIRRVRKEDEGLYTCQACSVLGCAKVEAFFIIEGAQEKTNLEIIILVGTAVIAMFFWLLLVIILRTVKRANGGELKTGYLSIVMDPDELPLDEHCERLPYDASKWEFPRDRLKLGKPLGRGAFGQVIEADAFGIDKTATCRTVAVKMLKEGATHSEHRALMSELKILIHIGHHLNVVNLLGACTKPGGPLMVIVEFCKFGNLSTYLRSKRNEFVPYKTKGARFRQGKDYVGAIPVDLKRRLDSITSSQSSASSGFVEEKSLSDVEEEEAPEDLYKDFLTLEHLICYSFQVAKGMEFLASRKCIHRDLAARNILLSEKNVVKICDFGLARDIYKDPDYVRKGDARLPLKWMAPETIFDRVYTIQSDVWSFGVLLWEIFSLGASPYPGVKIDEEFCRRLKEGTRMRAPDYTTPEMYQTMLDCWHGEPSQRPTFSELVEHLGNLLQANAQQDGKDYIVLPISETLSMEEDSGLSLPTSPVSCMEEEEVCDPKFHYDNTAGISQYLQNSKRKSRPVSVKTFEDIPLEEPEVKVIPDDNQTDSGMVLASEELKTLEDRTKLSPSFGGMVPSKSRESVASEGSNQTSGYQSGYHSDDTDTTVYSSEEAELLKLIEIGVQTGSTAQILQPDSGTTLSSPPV
# T8 sequence (Q15831 whole entry): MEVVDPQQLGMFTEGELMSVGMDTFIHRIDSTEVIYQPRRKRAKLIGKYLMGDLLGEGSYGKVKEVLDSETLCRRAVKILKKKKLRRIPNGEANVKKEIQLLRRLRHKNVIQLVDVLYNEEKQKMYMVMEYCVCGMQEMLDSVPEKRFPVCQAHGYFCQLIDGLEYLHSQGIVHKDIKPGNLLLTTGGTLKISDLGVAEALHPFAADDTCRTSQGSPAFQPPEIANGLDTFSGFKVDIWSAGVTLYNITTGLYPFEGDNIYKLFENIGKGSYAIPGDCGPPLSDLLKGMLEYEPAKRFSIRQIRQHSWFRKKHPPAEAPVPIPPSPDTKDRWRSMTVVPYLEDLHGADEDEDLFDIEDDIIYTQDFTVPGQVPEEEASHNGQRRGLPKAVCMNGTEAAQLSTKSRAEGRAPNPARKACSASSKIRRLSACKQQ
# T1 sequence (Q00537 whole entry): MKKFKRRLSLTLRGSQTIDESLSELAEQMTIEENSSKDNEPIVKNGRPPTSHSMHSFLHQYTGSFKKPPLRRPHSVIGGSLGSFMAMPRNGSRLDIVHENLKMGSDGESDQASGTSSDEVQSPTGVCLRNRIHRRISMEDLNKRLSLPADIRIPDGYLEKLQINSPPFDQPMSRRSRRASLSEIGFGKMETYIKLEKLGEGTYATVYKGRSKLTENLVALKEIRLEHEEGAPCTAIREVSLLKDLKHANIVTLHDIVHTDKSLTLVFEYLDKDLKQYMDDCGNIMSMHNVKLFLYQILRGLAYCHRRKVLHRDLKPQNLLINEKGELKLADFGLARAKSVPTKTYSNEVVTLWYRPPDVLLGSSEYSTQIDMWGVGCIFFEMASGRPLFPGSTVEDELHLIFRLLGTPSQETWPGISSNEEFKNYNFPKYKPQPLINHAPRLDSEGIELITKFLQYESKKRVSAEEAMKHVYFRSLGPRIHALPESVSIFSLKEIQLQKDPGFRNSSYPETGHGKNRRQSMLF
# CAMK2D, sequence (Q13557 whole entry): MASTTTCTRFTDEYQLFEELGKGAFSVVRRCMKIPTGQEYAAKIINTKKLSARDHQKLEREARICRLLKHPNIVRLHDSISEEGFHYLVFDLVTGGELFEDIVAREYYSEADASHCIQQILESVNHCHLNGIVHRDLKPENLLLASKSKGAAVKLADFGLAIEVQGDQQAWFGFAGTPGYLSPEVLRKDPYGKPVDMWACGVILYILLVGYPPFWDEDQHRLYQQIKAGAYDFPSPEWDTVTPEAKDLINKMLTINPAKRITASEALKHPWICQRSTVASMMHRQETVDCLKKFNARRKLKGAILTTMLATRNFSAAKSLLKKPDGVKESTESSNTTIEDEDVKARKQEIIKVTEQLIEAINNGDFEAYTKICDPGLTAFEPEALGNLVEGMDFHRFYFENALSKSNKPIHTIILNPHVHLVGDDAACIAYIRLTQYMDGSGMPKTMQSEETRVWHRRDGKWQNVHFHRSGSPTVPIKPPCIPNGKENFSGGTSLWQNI
smiles,measurement,setting,value
Cc1ccc(NC(=O)c2cccc(C(F)(F)F)c2)cc1Nc1cc(-c2cccnc2)nc2[nH]ccc12 [HZX-02-059],remaining binding at 1 µM,[1],100%
same,remaining binding at 1 µM,[2],97%
same,remaining binding at 1 µM,[3],100%
same,remaining binding at 1 µM,[4],100%
same,remaining binding at 1 µM,[5],84%
same,remaining binding at 1 µM,[6],100%
same,remaining binding at 1 µM,[7],100%
same,remaining binding at 1 µM,[8],55%
same,remaining binding at 1 µM,[9],94%
same,remaining binding at 1 µM,[10],88%
same,remaining binding at 1 µM,[11],95%
same,remaining binding at 1 µM,[12],99%
same,remaining binding at 1 µM,[13],100%
same,remaining binding at 1 µM,[14],100%
same,remaining binding at 1 µM,[15],100%
same,remaining binding at 1 µM,[16],79%
same,remaining binding at 1 µM,[17],95%
same,remaining binding at 1 µM,[18],14%
same,remaining binding at 1 µM,[19],83%
same,remaining binding at 1 µM,[20],88%
same,remaining binding at 1 µM,[21],100%
same,remaining binding at 1 µM,[22],100%
same,remaining binding at 1 µM,[23],72%
same,remaining binding at 1 µM,[24],83%
